The source made the active and inactive calls. No cut-off for these calls is given here.
Key:
[1] = system: Plasmodium falciparum; assay: Antiplasmodial activity against chloroquine-sensitive Plasmodium falciparum 3D7 after 48 hrs using Hema 3 staining by microscopic analysis; type: functional, organism-based; settings: 3D7, 48 h
[2] = system: Plasmodium falciparum; assay: Antiplasmodial activity against chloroquine-sensitive Plasmodium falciparum 3D7A assessed as assessed as parasitaemia level at two days dosage of 500 uM using Hema 3 staining by microscopic analysis; type: functional
[3] = system: Plasmodium falciparum; assay: Antiplasmodial activity against chloroquine-sensitive Plasmodium falciparum 3D7A assessed as assessed as parasitaemia level at 4 days dosage of 500 uM using Hema 3 staining by microscopic analysis; type: functional
[4] = system: Plasmodium falciparum; assay: Antiplasmodial activity against chloroquine-resistant Plasmodium falciparum K1 after 48 hrs using Hema 3 staining by microscopic analysis; type: functional, organism-based; settings: K1, 48 h
[5] = Toxicity in human mononuclear leukocytes assessed as decrease in cell health at 5 to 500 uM after 5 days by microscopic analysis; type: cell-based; settings: 120 h
[6] = system: Plasmodium falciparum; assay: Antiplasmodial activity against chloroquine-sensitive Plasmodium falciparum 3D7A assessed as parasitaemia level at 4 days dosage of 5 uM using Hema 3 staining by microscopic analysis; type: functional
[7] = system: Plasmodium falciparum; assay: Antiplasmodial activity against chloroquine-sensitive Plasmodium falciparum 3D7A assessed as death of all detectable parasites at two days dosage of 50 to 500 uM using Hema 3 staining by microscopic analysis; type: functional, organism-based
[8] = system: Plasmodium falciparum; assay: Antiplasmodial activity against chloroquine-sensitive Plasmodium falciparum 3D7A assessed as death of all detectable parasites at 4 days dosage of 50 to 500 uM using Hema 3 staining by microscopic analysis; type: functional, organism-based
[9] = system: Plasmodium falciparum; assay: Antiplasmodial activity against chloroquine-sensitive Plasmodium falciparum 3D7A assessed as parasitaemia level at 4 days dosage of 5 uM measured on day 9 using Hema 3 staining by microscopic analysis; type: functional
[10] = system: Plasmodium falciparum; assay: Antiplasmodial activity against chloroquine-sensitive Plasmodium falciparum 3D7A assessed as undetectable parasitaemia level at 4 days dosage of 5 uM measured on day 3 using Hema 3 staining by microscopic analysis; type: functional, organism-based
[11] = system: Plasmodium falciparum; assay: Antiplasmodial activity against chloroquine-sensitive Plasmodium falciparum 3D7A assessed as parasitaemia level at two days dosage of 5 uM measured on day 2 using Hema 3 staining by microscopic analysis; type: functional
[12] = system: Plasmodium falciparum; assay: Antiplasmodial activity against chloroquine-sensitive Plasmodium falciparum 3D7A assessed as parasitaemia level at two days dosage of 5 uM measured on day 9 using Hema 3 staining by microscopic analysis; type: functional
[13] = system: Plasmodium falciparum; assay: Antiplasmodial activity against chloroquine-sensitive Plasmodium falciparum 3D7A assessed as death of all detectable parasites at 4 days dosage of 0.5 to 500 uM using Hema 3 staining by microscopic analysis; type: functional, organism-based
[14] = system: Plasmodium falciparum; assay: Antiplasmodial activity against chloroquine-sensitive Plasmodium falciparum 3D7A assessed as death of all detectable parasites at 4 days dosage of 0.05 uM using Hema 3 staining by microscopic analysis; type: functional, organism-based
[15] = system: Plasmodium falciparum; assay: Antiplasmodial activity against chloroquine-sensitive Plasmodium falciparum 3D7A assessed as death of all detectable parasites at two days dosage of 0.5 to 500 uM using Hema 3 staining by microscopic analysis; type: functional, organism-based
[16] = system: Plasmodium falciparum; assay: Antiplasmodial activity against chloroquine-sensitive Plasmodium falciparum 3D7A assessed as death of all detectable parasites at two days dosage of 0.05 uM using Hema 3 staining by microscopic analysis; type: functional, organism-based

With `CC1(C)COC(c2ccc(Nc3ccnc4cc(Cl)ccc34)cc2)=N1` the IC50 [1] was 308 nM, the Activity [2] was 0% and the Activity [3] was 0%. For the same molecule, the IC50 [4] was greater than 1000 nM.
In the case of `Clc1ccc2c(Nc3cccc(C4=NCCO4)c3)ccnc2c1`, the Activity [5] is reported as “Toxic”, the IC50 [1] is reported as 91 nM and the Activity [6] is reported as 0%. The Activity [7] was “Active”, the Activity [8] was “Active” and the Activity [9] was 5%. The IC50 [4] was 895 nM.
With `O=C1C(O)=C([C@H]2CC[C@H](c3ccc(Cl)cc3)CC2)C(=O)c2ccccc21` [ATOVAQUONE] the IC50 [4] was 17.7 nM.
In the case of `Clc1ccc2c(Nc3ccc(C4=NCCO4)cc3)ccnc2c1`, the Activity [5] is reported as “Toxic”, the IC50 [1] is reported as 192 nM and the Activity [7] is reported as “Active”. The Activity [8] was “Active”, the Activity [10] was “Active” and the IC50 [4] was 846 nM. The Activity [11] was 0.25% and the Activity [12] was 5%.
With `CCN(CC)CCCC(C)Nc1ccnc2cc(Cl)ccc12` (stereo not given) [CHLOROQUINE] the Activity [5] was “Toxic”, the Activity [13] was “Active” and the Activity [14] was “inactive”. The Activity [15] was “Active” and the Activity [16] was “inactive”.
With `CC1(C)COC(c2cccc(Nc3ccnc4cc(Cl)ccc34)c2)=N1` the Activity [5] was “Toxic”, the IC50 [1] was 83 nM and the Activity [7] was “Active”. The Activity [8] was “Active” and the IC50 [4] was 711 nM.

— ChEMBL document CHEMBL1806493, “Synthesis and biological activities of 4-N-(anilinyl-n-[oxazolyl])-7-chloroquinolines (n=3' or 4') against Plasmodium falciparum in in vitro models” (Bioorg Med Chem Lett, 2011)
